The text below walks through data of patent US9885060B2, “Alkene production” (Evonik Degussa GmbH, priority 2015, dated 2018).

Format in all cases: biochemical
Experiment [1] has as its system OleT. Put plainly: Trapping, derivatization (Br2/DCM impinger) and quantification of 1-butene and 1-propene formed by the OleT-CamAB-FDH cascade. The note with it: 10 mM substrate, 10 ml scale. The method, then:
FIG. 7 is a picture of a novel reaction set up for trapping volatile α-olefins, such as 1-propene and 1-butene. A small impinger containing 10 ml of a 20 mM Br2/DCM solution was placed on top of the flask serving as sole gas outlet and trap for α-olefin products. The functionality of this system was successfully confirmed using an analytical standard of 1-heptene. The concept for derivatization and trapping of volatile α-olefins is shown in Scheme 2.
Production of 1-propene and 1-butene was initially confirmed using manual headspace GC-MS injection. Since the quantification of 1-propene and 1-butene using analytical standards was not feasible, a novel trapping/derivatization system for highly volatile short-chain α-olefins derived from biocatalytic reactions was designed. […]
The obtained products were analyzed by GC-FID and GC-MS using analytical standards of 1,2-dibromobutane and 1,2-dibromopropane. Due to the (visible) gas exhaust (CO2 production by OleT and FDH) and strong evaporation of DCM (˜70% volume lost after 24 h), the residual volume in the impinger was determined to allow reliable product quantification. Calibration curves for 1,2-dibromobutane and 1,2-dibromopropane were prepared to allow quantification of produced 1-propene and 1-butene (not shown). […]

Experiment [2] relates to OleT. Nature of the experiment: Decarboxylation of FAs C22 to C4 employing the FDH-CamAB-OleT redox-cascade. The note with it: 25 °C, 24 h, 10 mM substrate. As for the experimental part:
Enzymatic reactions (1 mL scale) were quenched by addition of 100 μL 5 N Extraction of substrate and products was performed with 500 μL EtOAc containing 0.1% 1-decanol as internal standard. The organic phase was dried over anhydrous Na2SO4. Derivatization of carboxylic acids (fatty acids and hydroxy acids) to the corresponding methyl esters was achieved by mixing the organic phase with MeOH (2.5:1.5 v/v) followed by supplementation of 5 to 15 μL of 2 M TMSCHN2 (trimethylsilyldiazomethane in diethyl ether). The mixture was incubated for 30 min, 25° C. and 750 rpm before injection into GC-FID or GC-MS, Extraction and derivatization of products and substrates from conversion of short chain FAs ([…]) was performed using the same protocol but all steps were performed on ice to prevent undesired loss of volatile products.
Products from FA substrates with chain lengths ranging from C22 to C10 were separated on a HP5 column (Programm) and detected by GC-FID or GC-MS. Extracted products from conversion of nonanoic acid (I-octene as product) were separated on a DB1702 column (Programm) and detected by GC-FID. Authentic standards of substrates and terminal olefins were treated as described above and were used as references for identification and preparation of calibration curves. Detection of volatile short chain terminal olefins (1-butene/1-propene [ongoing] to 1-heptene) was accomplished by manual injection from vial headspaces into GC-MS, in order to prevent loss of products, the vials containing the reaction mixtures were sealed with a PTFE septum. After conversion the closed vial was heated for 10 min at 80° C., together with a 10 ml syringe (TYPE). From the headspace 2 to 9 μl volumes were injected splitless into a GC-MS chromatograph and analytes were separated on a HP5 column (Programm). Calibration curves for 1-pentene, 1-hexene and 1-heptene were prepared in the same way at 4° C. and using 5% DMF as cosolvent.
The substrate scope of OleT was further investigated by varying the FA chain length from C3 to C22. […] For the first time, short EAs could be decarboxylated to the corresponding olefins, covering the whole spectrum from C11 down to C4. […] Due to the high volatility of short chain olefins, product work up was done at 4° C. […] (2.53 mM product from 5 mM lauric acid). Head-space analysis by GC-MS from reactions with short chain FAs (C8-C5) confirmed the formation of the respective α-olefins, allowing the first biotechnological access to 1-heptene, 1-hexene and 1-pentene and 1-butene with OleT.
Conversion of heptanoic acid was carried out as described in Example 4 using the OleTCamAB-FDH reaction cascade.
Calibration curves for 1-hexene were prepared accordingly ranging from 0.05 to 2 mM. Due to a strong overlap of […] with the peak areas of CO2 and EtOH (FIG. 1, peaks a, b and c) the ion extraction mode of the GC-MS to generate reliable calibration curves was used. Neither CO2 nor EtOH interfered with the product peak area. This can be seen comparing FIGS. 1 and 5 which allow reliable and linear quantification of 1-hexene (FIG. 6) using manual headspace GC-MS injection.
Manual headspace injection into GC-MS was successfully performed for all substrates with chain lengths of C11 to C6. Conversion of 10 mM heptanoic acid allowed reliable formation of up to 1.3 mM 1-hexene without further optimization of the reaction conditions.

The subject of experiment [3] is OleT. Put plainly: Inhibitory effect of gluconic acid on OleT productivity. The note with it: 10 mM gluconic acid. The method, then: After 24 h reaction time, product concentrations of 1.16 mM (0.27 g L-1) 1-heptadecene and 1 mM (0.21 g L-1) 1-pentadecene were obtained but could not be further enhanced. […] Compared to a previously published whole cell reaction system, this FDH-driven system allows 6 times higher product titer and a 21 times higher volumetric productivity with 42.5 mg L-1 h-1 of α-olefin after 8 h reaction time vs: 98 mg L-1 in 48 h) (Table 2).

Structures are written as SMILES.

For `CCCCC(=O)O` [C5, valeric acid], the “α-olefin formed (trapped as 1,2-dibromoalkane)” value in experiment [1] is 834 µM. In experiment [2], this molecule showed a Conversion of 8.3% and a α-Olefin of 834 µM.
With `CCCC(=O)O` [C4, butyric acid], the “α-olefin formed (trapped as 1,2-dibromoalkane)” value in experiment [1] came to 504 µM. In experiment [2], this molecule displayed a Conversion of 5% and a α-Olefin of 504 µM.
As for `O=C(O)[C@H](O)[C@@H](O)[C@H](O)[C@H](O)CO` [gluconic acid], in experiment [3], the “reduction of OleT productivity” value came out at 28%.
